pEC50: −log10 of the molar value. Starred links: 1 amine or outer side, 2 acyl side, 3 side chain; linkers in the order of their positions; H or OH if unused. Non-standard residues stand in square brackets, D forms with d. Residues, ends and D or L forms follow the SMILES beside them. *: point of attachment. X4 = Cc1cc(F)cc(-c2cnc(NCCNC(=O)CCOCCOCCOCCOCCC(=O)*)c(-c3nc4ccc(Cl)cc4[nH]3)c2N2CCC(N)CC2)c1; X1 = Cc1cc(F)cc(-c2cnc(NCCNC(=O)CCOCCC(=O)*)c(-c3nc4ccc(Cl)cc4[nH]3)c2N2CCC(N)CC2)c1; Dolaproine = CO[C@@H]([C@@H]1CCCN1)[C@@H](C)C(=O)O; Dil = CC[C@H](C)[C@H](NC)[C@@H](CC(=O)O)OC; PABC = O=C(OCc1ccc(N[*:1])cc1)[*:2]; X2 = C[C@@H](N*)[C@@H](O)c1ccccc1; Cya = N[C@@H](CS(=O)(=O)O)C(=O)O; dCya = N[C@H](CS(=O)(=O)O)C(=O)O; Cit = NC(=O)NCCC[C@H](N)C(=O)O; NMeV = CN[C@H](C(=O)O)C(C)C
Columns and labels:
Assay type in all cases: cell-based
[1] = target: T1, human somatostatin receptor subtype 2 (Homo sapiens, UniProt P30874); test: Functional cAMP assay for SSTR2 agonists (HTRF) in CHO-K1 cells; conditions: CHO-K1 cells stably expressing human SST2, 20 min; read-out: hSST2 cAMP Avg EC50
T1 construct: expressed in transfected cells
T1 sequence (P30874 whole entry): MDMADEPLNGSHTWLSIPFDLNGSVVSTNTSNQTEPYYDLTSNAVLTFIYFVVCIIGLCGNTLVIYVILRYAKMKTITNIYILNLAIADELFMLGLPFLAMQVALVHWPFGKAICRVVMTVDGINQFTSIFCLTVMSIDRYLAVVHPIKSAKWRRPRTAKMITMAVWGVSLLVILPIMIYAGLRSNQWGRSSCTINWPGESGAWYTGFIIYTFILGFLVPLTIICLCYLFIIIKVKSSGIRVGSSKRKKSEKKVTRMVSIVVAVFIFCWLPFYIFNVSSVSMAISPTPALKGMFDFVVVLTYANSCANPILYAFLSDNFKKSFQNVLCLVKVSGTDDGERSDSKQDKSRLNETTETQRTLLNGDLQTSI
Procedure, shortened: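 Agonism scored as loss of NKH477 (1.6 μM)-driven cAMP, with IBMX present, after 20 min, 37° C. exposure of stably transfected CHO-K1 cells to compound dilutions (typically 0-10,000 nM). Lysates read by time-resolved FRET; cAMP interpolated from standard curve and EC50 derived.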

SST2 = target: T2, SST2 (Homo sapiens, UniProt P30874); test: PathHunter CHO-K1 SST2 internalization assay; conditions: PathHunter CHO-K1 SST2, 90 min; read-out: Internalization EC50
T2 construct: host or cells: PathHunter CHO-K1 SST2 cells
T2 sequence (P30874 whole entry): as above
Procedure, shortened: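 IC50 comes from four-parameter curves on background-corrected duplicates of Beta-Glo luminescence, read after 60 min at room temperature in the dark. Before that, CHO-K1 SST2 internalization cells (48 h post-seeding) received SMDC as eleven threefold dilutions, 10 uM highest final, for 90 min at 37 C.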

[2] = test system: NCI-H524 (ATCC) human small cell lung cancer cells; conditions: 2 h
Procedure, shortened: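 CellTiter-Glo luminescence after a 2 h SMDC pulse (top dose 1 uM, 2-fold dilutions, 11 points), medium wash, then 70 h recovery. Cells were seeded at 5,000/well and dosed 24 h later. % inhibition vs control gave IC50 via four-parameter fit.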

Structure (SMILES)	pEC50 [1]	pEC50 (SST2)	pEC50 [2]
CC[C@H](C)[C@@H]([C@@H](CC(=O)N1CCC[C@H]1[C@H](OC)[C@@H](C)C(=O)N[C@H](C)[C@@H](O)c1ccccc1)OC)N(C)C(=O)[C@@H](NC(=O)[C@H](C(C)C)N(C)C(=O)OCc1ccc(NC(=O)[C@H](CCCNC(N)=O)NC(=O)[C@@H](NC(=O)[C@H](CCC(=O)O)NC(=O)[C@H](CCC(=O)O)NC(=O)CCOCCC(=O)NCCNc2ncc(-c3cc(C)cc(F)c3)c(N3CCC(N)CC3)c2-c2nc3ccc(Cl)cc3[nH]2)C(C)C)cc1)C(C)C [Compound 98] (X1-EEV[Cit][PABC][NMeV]V[Dil][Dolaproine]-X2)	9.60	8.54	6.92
CC[C@H](C)[C@@H]([C@@H](CC(=O)N1CCC[C@H]1[C@H](OC)[C@@H](C)C(=O)N[C@H](C)[C@@H](O)c1ccccc1)OC)N(C)C(=O)[C@@H](NC(=O)[C@H](C(C)C)N(C)C(=O)OCc1ccc(NC(=O)[C@H](CCCNC(N)=O)NC(=O)[C@@H](NC(=O)[C@H](CS(=O)(=O)O)NC(=O)CCOCCC(=O)NCCNc2ncc(-c3cc(C)cc(F)c3)c(N3CCC(N)CC3)c2-c2nc3ccc(Cl)cc3[nH]2)C(C)C)cc1C(=O)NCCN)C(C)C [Compound 99]	9.72	8.55	8.34
CC[C@H](C)[C@@H]([C@@H](CC(=O)N1CCC[C@H]1[C@H](OC)[C@@H](C)C(=O)N[C@H](C)[C@@H](O)c1ccccc1)OC)N(C)C(=O)[C@@H](NC(=O)[C@H](C(C)C)N(C)C(=O)OCc1ccc(NC(=O)[C@H](CCCNC(N)=O)NC(=O)[C@@H](NC(=O)[C@H](CS(=O)(=O)O)NC(=O)CCOCCOCCOCCOCCC(=O)NCCNc2ncc(-c3cc(C)cc(F)c3)c(N3CCC(N)CC3)c2-c2nc3ccc(Cl)cc3[nH]2)C(C)C)cc1C(=O)NCCN)C(C)C [Compound 100]	9.85	8.48	8.19
CC[C@H](C)[C@@H]([C@@H](CC(=O)N1CCC[C@H]1[C@H](OC)[C@@H](C)C(=O)N[C@H](C)[C@@H](O)c1ccccc1)OC)N(C)C(=O)[C@@H](NC(=O)[C@H](C(C)C)N(C)C(=O)OCc1ccc(NC(=O)[C@H](CCCNC(N)=O)NC(=O)[C@@H](NC(=O)[C@@H](CCC(=O)O)NC(=O)CCOCCC(=O)NCCNc2ncc(-c3cc(C)cc(F)c3)c(N3CCC(N)CC3)c2-c2nc3ccc(Cl)cc3[nH]2)C(C)C)cc1C(=O)NCCN)C(C)C [Compound 101]	9.66	8.17	7.47
CC[C@H](C)[C@@H]([C@@H](CC(=O)N1CCC[C@H]1[C@H](OC)[C@@H](C)C(=O)N[C@H](C)[C@@H](O)c1ccccc1)OC)N(C)C(=O)[C@@H](NC(=O)[C@H](C(C)C)N(C)C(=O)OCc1ccc(NC(=O)[C@H](CCCNC(N)=O)NC(=O)[C@@H](NC(=O)[C@@H](CCC(=O)O)NC(=O)CCOCCC(=O)NCCNc2ncc(-c3cc(C)cc(F)c3)c(N3CCC(N)CC3)c2-c2nc3ccc(Cl)cc3[nH]2)C(C)C)cc1)C(C)C [Compound 102] (X1-[dE]V[Cit][PABC][NMeV]V[Dil][Dolaproine]-X2)	10.17	7.72	6.89
CC[C@H](C)[C@@H]([C@@H](CC(=O)N1CCC[C@H]1[C@H](OC)[C@@H](C)C(=O)N[C@H](C)[C@@H](O)c1ccccc1)OC)N(C)C(=O)[C@@H](NC(=O)[C@H](C(C)C)N(C)C(=O)OCc1ccc(NC(=O)[C@H](CCCNC(N)=O)NC(=O)[C@@H](NC(=O)[C@@H](CCC(=O)O)NC(=O)[C@@H](CCC(=O)O)NC(=O)CCOCCC(=O)NCCNc2ncc(-c3cc(C)cc(F)c3)c(N3CCC(N)CC3)c2-c2nc3ccc(Cl)cc3[nH]2)C(C)C)cc1)C(C)C [Compound 103] (X1-[dE][dE]V[Cit][PABC][NMeV]V[Dil][Dolaproine]-X2)	9.59	7.62	6.21
CC[C@H](C)[C@@H]([C@@H](CC(=O)N1CCC[C@H]1[C@H](OC)[C@@H](C)C(=O)N[C@H](C)[C@@H](O)c1ccccc1)OC)N(C)C(=O)[C@@H](NC(=O)[C@H](C(C)C)N(C)C(=O)OCc1ccc(NC(=O)[C@H](CCCNC(N)=O)NC(=O)[C@@H](NC(=O)[C@@H](CS(=O)(=O)O)NC(=O)CCOCCC(=O)NCCNc2ncc(-c3cc(C)cc(F)c3)c(N3CCC(N)CC3)c2-c2nc3ccc(Cl)cc3[nH]2)C(C)C)cc1)C(C)C [Compound 104] (X1-[dCya]V[Cit][PABC][NMeV]V[Dil][Dolaproine]-X2)	10.21	8.55	7.62
CC[C@H](C)[C@@H]([C@@H](CC(=O)N1CCC[C@H]1[C@H](OC)[C@@H](C)C(=O)N[C@H](C)[C@@H](O)c1ccccc1)OC)N(C)C(=O)[C@@H](NC(=O)[C@H](C(C)C)N(C)C(=O)OCc1ccc(NC(=O)[C@H](CCCNC(N)=O)NC(=O)[C@@H](NC(=O)[C@H](CS(=O)(=O)O)NC(=O)[C@H](CCC(=O)O)NC(=O)CCOCCC(=O)NCCNc2ncc(-c3cc(C)cc(F)c3)c(N3CCC(N)CC3)c2-c2nc3ccc(Cl)cc3[nH]2)C(C)C)cc1)C(C)C [Compound 105] (X1-E[Cya]V[Cit][PABC][NMeV]V[Dil][Dolaproine]-X2)	9.74	7.85	6.54
CC[C@H](C)[C@@H]([C@@H](CC(=O)N1CCC[C@H]1[C@H](OC)[C@@H](C)C(=O)N[C@H](C)[C@@H](O)c1ccccc1)OC)N(C)C(=O)[C@@H](NC(=O)[C@H](C(C)C)N(C)C(=O)OCc1ccc(NC(=O)[C@H](CCCNC(N)=O)NC(=O)[C@@H](NC(=O)[C@H](CS(=O)(=O)O)NC(=O)[C@@H](CCC(=O)O)NC(=O)CCOCCC(=O)NCCNc2ncc(-c3cc(C)cc(F)c3)c(N3CCC(N)CC3)c2-c2nc3ccc(Cl)cc3[nH]2)C(C)C)cc1)C(C)C [Compound 106] (X1-[dE][Cya]V[Cit][PABC][NMeV]V[Dil][Dolaproine]-X2)	9.60	7.80	6.34
CC[C@H](C)[C@@H]([C@@H](CC(=O)N1CCC[C@H]1[C@H](OC)[C@@H](C)C(=O)N[C@H](C)[C@@H](O)c1ccccc1)OC)N(C)C(=O)[C@@H](NC(=O)[C@H](C(C)C)N(C)C(=O)OCc1ccc(NC(=O)[C@H](CCCNC(N)=O)NC(=O)[C@@H](NC(=O)[C@H](CC(=O)O)NC(=O)[C@H](CC(=O)O)NC(=O)[C@H](CC(=O)O)NC(=O)CCOCCC(=O)NCCNc2ncc(-c3cc(C)cc(F)c3)c(N3CCC(N)CC3)c2-c2nc3ccc(Cl)cc3[nH]2)C(C)C)cc1)C(C)C [Compound 108] (X1-DDDV[Cit][PABC][NMeV]V[Dil][Dolaproine]-X2)	8.72	7.28	5.48
CC[C@H](C)[C@@H]([C@@H](CC(=O)N1CCC[C@H]1[C@H](OC)[C@@H](C)C(=O)N[C@H](C)[C@@H](O)c1ccccc1)OC)N(C)C(=O)[C@@H](NC(=O)[C@H](C(C)C)N(C)C(=O)OCc1ccc(NC(=O)[C@H](CCCNC(N)=O)NC(=O)[C@@H](NC(=O)[C@@H](CC(=O)O)NC(=O)[C@@H](CC(=O)O)NC(=O)[C@@H](CC(=O)O)NC(=O)CCOCCC(=O)NCCNc2ncc(-c3cc(C)cc(F)c3)c(N3CCC(N)CC3)c2-c2nc3ccc(Cl)cc3[nH]2)C(C)C)cc1)C(C)C [Compound 109] (X1-[dD][dD][dD]V[Cit][PABC][NMeV]V[Dil][Dolaproine]-X2)	9.15	7.96	5.60
CC[C@H](C)[C@@H]([C@@H](CC(=O)N1CCC[C@H]1[C@H](OC)[C@@H](C)C(=O)N[C@H](C)[C@@H](O)c1ccccc1)OC)N(C)C(=O)[C@@H](NC(=O)[C@H](C(C)C)N(C)C(=O)OCc1ccc(NC(=O)[C@H](CCCNC(N)=O)NC(=O)[C@@H](NC(=O)[C@H](CCC(=O)O)NC(=O)[C@H](CCC(=O)O)NC(=O)CCOCCOCCOCCOCCC(=O)NCCNc2ncc(-c3cc(C)cc(F)c3)c(N3CCC(N)CC3)c2-c2nc3ccc(Cl)cc3[nH]2)C(C)C)cc1)C(C)C [Compound 110] (X4-EEV[Cit][PABC][NMeV]V[Dil][Dolaproine]-X2)	9.24	7.89	6.96
CC[C@H](C)[C@@H]([C@@H](CC(=O)N1CCC[C@H]1[C@H](OC)[C@@H](C)C(=O)N[C@H](C)[C@@H](O)c1ccccc1)OC)N(C)C(=O)[C@@H](NC(=O)[C@H](C(C)C)N(C)C(=O)OCc1ccc(NC(=O)[C@H](CCCNC(N)=O)NC(=O)[C@@H](NC(=O)CNC(=O)[C@H](CCC(=O)O)NC(=O)[C@H](CCC(=O)O)NC(=O)CCOCCC(=O)NCCNc2ncc(-c3cc(C)cc(F)c3)c(N3CCC(N)CC3)c2-c2nc3ccc(Cl)cc3[nH]2)C(C)C)cc1)C(C)C [Compound 111] (X1-EEGV[Cit][PABC][NMeV]V[Dil][Dolaproine]-X2)	8.92	7.66	6.44
CC[C@H](C)[C@@H]([C@@H](CC(=O)N1CCC[C@H]1[C@H](OC)[C@@H](C)C(=O)N[C@H](C)[C@@H](O)c1ccccc1)OC)N(C)C(=O)[C@@H](NC(=O)[C@H](C(C)C)N(C)C(=O)OCc1ccc(NC(=O)[C@H](CCCNC(N)=O)NC(=O)[C@@H](NC(=O)[C@H](CCC(N)=O)NC(=O)CCOCCC(=O)NCCNc2ncc(-c3cc(C)cc(F)c3)c(N3CCC(N)CC3)c2-c2nc3ccc(Cl)cc3[nH]2)C(C)C)cc1C(N)=O)C(C)C [Compound 112]	9.80	8.54	8.00
